{"source": "ChEMBL document CHEMBL5634082", "about": "“Recent advances in the development of inhibitors targeting KRAS-G12C and its related pathways” (Eur J Med Chem, 2023)", "key": {"[1]": {"test_system": "GTPase KRas (Homo sapiens), P01116 [G12C]", "test": "Inhibition of KRAS G12C mutant (unknown origin) at 10 uM relative to control"}, "[2]": {"target": "GTPase KRas (Homo sapiens, UniProt P01116, G12C)", "test": "Inhibition of KRAS G12C mutant (unknown origin)"}, "[3]": {"target": "von Hippel-Lindau disease tumor suppressor/GTPase KRas (Homo sapiens, UniProt P01116+P40337, G12C)", "test": "Protac activity at VHL/KRAS G12C mutant in human NCI-H2030 cells assessed as degradation of KRAS G12C mutant incubated for 24 hrs by immunoblot assay", "type": "cell-based"}, "[4]": {"test_system": "von Hippel-Lindau disease tumor suppressor/GTPase KRas (Homo sapiens), P01116+P40337 [G12C]", "test": "Protac activity at VHL/KRAS G12C mutant in human SW1573 cells assessed as induction of protein degradation by measuring maximal efficacy at […] incubated for 72 hrs by Western blot analysis relative to control", "type": "cell-based", "settings": "dose 2.5 µM"}, "[5]": {"test_system": "NCI-H441", "test": "Antiproliferative activity against human NCI-H441 cells harboring KRAS G12V mutant assessed as reduction in cell viability incubated for 72 hrs by MTT assay", "type": "functional, cell-based", "settings": "NCI-H441, 72 h"}, "[6]": {"test_system": "NCI-H358", "test": "Antitumor activity against human NCI-H358 cells harboring KRAS G12C mutant xenografted in mouse model assessed as tumor growth inhibition at 100 mg/kg, po relative to control", "type": "functional", "set-up": "scale not given: the % may be the effect or the level left"}, "[7]": {"test_system": "NCI-H358", "test": "Antitumor activity against human NCI-H358 cells harboring KRAS G12C mutant xenografted in mouse model assessed as tumor growth inhibition at 10 mg/kg, po relative to control", "type": "functional", "set-up": "scale not given: the % may be the effect or the level left"}, "[8]": {"test_system": "NCI-H358", "test": "Antitumor activity against human NCI-H358 cells harboring KRAS G12C mutant xenografted in mouse model assessed as tumor growth inhibition at 30 mg/kg, po relative to control", "type": "functional", "set-up": "scale not given: the % may be the effect or the level left"}, "[9]": {"test": "Inhibition of ERK phosphorylation in human NCI-H358 cells harboring KRAS G12C mutant incubated for 6 hrs by Western blot analysis", "type": "cell-based", "settings": "NCI-H358, 6 h"}, "[10]": {"test": "Inhibition of ERK phosphorylation in human NCI-H358 cells incubated for 3 hrs", "type": "cell-based", "settings": "NCI-H358, 3 h"}, "[11]": {"test": "cells", "settings": "Homo sapiens, MKN-1"}, "[12]": {"test_system": "von Hippel-Lindau disease tumor suppressor/GTPase KRas (Homo sapiens), P01116+P40337 [G12C]", "test": "PROTAC activity at VHL/KRAS G12C mutant in human NCI-H2030 cells assessed as induction of protein degradation by measuring maximal efficacy at […] incubated for 24 hrs by Immunoblotting analysis relative to control", "type": "cell-based", "settings": "dose 2.5 µM"}, "[13]": {"test": "Oral bioavailability in Sprague-Dawley rat", "type": "ADME, organism-based", "settings": "in vivo"}, "[14]": {"test": "Clearance in iv dosed CD-1 mouse", "type": "ADME, organism-based", "settings": "in vivo"}, "[15]": {"test": "Oral bioavailability in Beagle dog", "type": "ADME, organism-based, Canis lupus familiaris", "settings": "in vivo"}, "[16]": {"test": "Volume of distribution at steady state in iv dosed Sprague-Dawley rat by LC-MS/MS analysis", "type": "ADME, organism-based", "settings": "in vivo, read-out: Vdss"}, "[17]": {"test": "Volume of distribution at steady state in iv dosed Beagle dog", "type": "ADME, organism-based, Canis lupus familiaris", "settings": "in vivo, read-out: Vdss"}, "[18]": {"test": "Oral bioavailability in CD-1 mouse", "type": "ADME, organism-based", "settings": "in vivo"}, "[19]": {"test": "Volume of distribution at steady state in iv dosed CD-1 mouse", "type": "ADME, organism-based", "settings": "in vivo, read-out: Vdss"}, "[20]": {"target": "GTPase KRas (Homo sapiens, UniProt P01116, G12V)", "test": "Binding affinity to Cys12 residue of GDP bound human KRAS […] mutant expressed in Escherichia coli BL21 Rosetta cells assessed as dissociation constant by HSQC NMR spectral analysis"}}, "data": [{"smiles": "C=CC(=O)N1CCN(c2nc(OC[C@@]34CCCN3C[C@H](F)C4)nc3c2cc(-c2cccc4cccc(C)c24)n3C)C[C@@H]1CC#N", "values": [{"measurement": "inhibition", "setting": "[1]", "result": 98.6, "unit": "%"}, {"measurement": "IC50", "setting": "[2]", "result": 340, "unit": "nM"}]}, {"smiles": "C=C(F)C(=O)N1CCN(c2nc(OC[C@@H]3CCCN3CCCCOCCC(=O)N[C@H](C(=O)N3C[C@H](O)C[C@H]3C(=O)NCc3ccc(-c4scnc4C)cc3)C(C)(C)C)nc3c2CCN(c2cccc4cccc(Cl)c24)C3)C[C@@H]1CC#N", "values": [{"measurement": "DC50", "setting": "[3]", "result": 880, "unit": "nM"}, {"measurement": "Emax", "setting": "[4]", "result": 90, "unit": "%"}]}, {"smiles": "N#Cc1c(N)sc2c1CCCC2", "values": [{"measurement": "IC50", "setting": "[5]", "result": 16000, "unit": "nM"}]}, {"smiles": "C=CC(=O)N1CCN(c2nc(OC[C@@H]3CCCN3C)nc3c2CCN(c2cccc4cccc(Cl)c24)C3)C[C@@H]1CC#N", "values": [{"measurement": "Activity", "setting": "[6]", "result": 90, "unit": "%"}, {"measurement": "Activity", "setting": "[7]", "result": 70, "unit": "%"}, {"measurement": "Activity", "setting": "[8]", "result": 89, "unit": "%"}]}, {"smiles": "C=CC(=O)N1CC2(CC(n3nc(-c4ccccc4)c(-c4c(Cl)c(C)cc5[nH]ncc45)c3C)C2)C1", "values": [{"measurement": "IC50", "setting": "[9]", "result": 40, "unit": "nM"}]}, {"smiles": "C=C(F)C(=O)N1CCN(c2nc(OC[C@@H]3CCCN3CCOCCOCCC(=O)N[C@H](C(=O)N3C[C@H](O)C[C@H]3C(=O)NCc3ccc(-c4scnc4C)cc3)C(C)(C)C)nc3c2CCN(c2cccc4cccc(Cl)c24)C3)C[C@@H]1CC#N", "values": [{"measurement": "DC50", "setting": "[3]", "result": "> 10000", "unit": "nM"}, {"measurement": "Emax", "setting": "[4]", "result": 50, "unit": "%"}]}, {"smiles": "C=CC(=O)N1CCN(c2nc(OC[C@@H]3CCCN3C)nc3c2CCN(c2cccc4ccccc24)C3)CC1", "values": [{"measurement": "IC50", "setting": "[10]", "result": 4400, "unit": "nM"}]}, {"smiles": "C=CC(=O)N1CCN(c2nc(OCC34CCCN3CCC4)nc3c2cc(-c2cccc4cccc(C)c24)n3C)C[C@@H]1CC#N", "values": [{"measurement": "inhibition", "setting": "[1]", "result": 91.3, "unit": "%"}, {"measurement": "IC50", "setting": "[2]", "result": 1540, "unit": "nM"}]}, {"smiles": "C=CC(=O)N1CC2(CC(n3nc(-c4ccc5[nH]ncc5c4)c(-c4c(Cl)c(C)cc5[nH]ncc45)c3C)C2)C1", "values": [{"measurement": "IC50", "setting": "[9]", "result": 20, "unit": "nM"}]}, {"smiles": "Cc1c([C@@H](C)Nc2nnc(C)c3ccc(N4CCNCC4)cc23)cccc1C(F)(F)F", "values": [{"measurement": "IC50", "setting": "[11]", "result": 74, "unit": "nM"}]}, {"smiles": "C=C(F)C(=O)N1CCN(c2nc(OC[C@@H]3CCCN3CCC(=O)NCCOCCOCCC(=O)N[C@H](C(=O)N3C[C@H](O)C[C@H]3C(=O)NCc3ccc(-c4scnc4C)cc3)C(C)(C)C)nc3c2CCN(c2cccc4cccc(Cl)c24)C3)C[C@@H]1CC#N", "values": [{"measurement": "Emax", "setting": "[12]", "result": 30, "unit": "%"}]}, {"smiles": "C=C(F)C(=O)N1CCN(c2nc(OC[C@@H]3CCCN3CCC(=O)NCCOCCC(=O)N[C@H](C(=O)N3C[C@H](O)C[C@H]3C(=O)NCc3ccc(-c4scnc4C)cc3)C(C)(C)C)nc3c2CCN(c2cccc4cccc(Cl)c24)C3)C[C@@H]1CC#N", "values": [{"measurement": "Emax", "setting": "[12]", "result": 35, "unit": "%"}]}, {"smiles": "C=CC(=O)N1CCN(c2nc(OC[C@@H]3CCCN3C)nc3c2CCN(c2cccc4ccccc24)C3)C[C@@H]1CC#N", "values": [{"measurement": "IC50", "setting": "[10]", "result": 10, "unit": "nM"}]}, {"smiles": "C=CC(=O)N1CC2(CC(n3nc(-c4ccc5c(cnn5C)c4)c(-c4c(Cl)c(C)cc5[nH]ncc45)c3C)C2)C1", "note": "[OPNURASIB]", "values": [{"measurement": "IC50", "setting": "[9]", "result": 20, "unit": "nM"}]}, {"smiles": "C=CC(=O)N1CC2(CC(n3nc(C(C)C)c(-c4c(C)ccc5[nH]ncc45)c3C)C2)C1", "values": [{"measurement": "IC50", "setting": "[9]", "result": 3900, "unit": "nM"}]}, {"smiles": "C=C(F)C(=O)N1CCN(c2nc(OC[C@@H]3CCCN3CCCOCCC(=O)N[C@H](C(=O)N3C[C@H](O)C[C@H]3C(=O)NCc3ccc(-c4scnc4C)cc3)C(C)(C)C)nc3c2CCN(c2cccc4cccc(Cl)c24)C3)C[C@@H]1CC#N", "values": [{"measurement": "DC50", "setting": "[3]", "result": 590, "unit": "nM"}, {"measurement": "Emax", "setting": "[4]", "result": 90, "unit": "%"}, {"measurement": "Emax", "setting": "[12]", "result": 75, "unit": "%"}]}, {"smiles": "Cc1c(C#N)cccc1[C@@H](C)Nc1nnc(C)c2cnc(N3CCOCC3)cc12", "note": "[MRTX-0902]", "values": [{"measurement": "bioavailability", "setting": "[13]", "result": 38, "unit": "%"}, {"measurement": "clearance", "setting": "[14]", "result": 4.4, "unit": "mL/min/kg"}, {"measurement": "bioavailability", "setting": "[15]", "result": 38, "unit": "%"}, {"measurement": "Vd", "setting": "[16]", "result": 0.28, "unit": "L/kg"}, {"measurement": "Vd", "setting": "[17]", "result": 0.28, "unit": "L/kg"}, {"measurement": "bioavailability", "setting": "[18]", "result": 38, "unit": "%"}, {"measurement": "Vd", "setting": "[19]", "result": 0.28, "unit": "L/kg"}]}, {"smiles": "C=CC(=O)N1CCN(c2nc(OC[C@@H]3CCCN3C)nc3c2cc(-c2cccc4cccc(C)c24)n3C)C[C@@H]1CC#N", "values": [{"measurement": "inhibition", "setting": "[1]", "result": 39.8, "unit": "%"}]}, {"smiles": "C[C@]1(c2nc(-c3ccc(N)cc3)no2)CCCc2sc(N)c(C#N)c21", "values": [{"measurement": "Kd", "setting": "[20]", "result": "< 10000", "unit": "nM"}]}, {"smiles": "Cc1c([C@@H](C)Nc2nnc(C)c3cnc(N4CCOCC4)cc23)cccc1C(F)(F)F", "values": [{"measurement": "IC50", "setting": "[11]", "result": 26, "unit": "nM"}]}, {"smiles": "C=CC(=O)N1CCN(c2nc(OC[C@@H]3CCCN3C)nc3c2cc(-c2cccc4ccccc24)n3C)C[C@@H]1CC#N", "values": [{"measurement": "inhibition", "setting": "[1]", "result": 17, "unit": "%"}]}, {"smiles": "C=C(F)C(=O)N1CCN(c2nc(OC[C@@H]3CCCN3CCC(=O)NCCC(=O)N[C@H](C(=O)N3C[C@H](O)C[C@H]3C(=O)NCc3ccc(-c4scnc4C)cc3)C(C)(C)C)nc3c2CCN(c2cccc4cccc(Cl)c24)C3)C[C@@H]1CC#N", "values": [{"measurement": "DC50", "setting": "[3]", "result": 6400, "unit": "nM"}, {"measurement": "Emax", "setting": "[12]", "result": 85, "unit": "%"}]}, {"smiles": "C[C@]1(c2nc(-c3cccc(N)c3)no2)CCCc2sc(N)c(C#N)c21", "values": [{"measurement": "Kd", "setting": "[20]", "result": "< 10000", "unit": "nM"}]}, {"smiles": "CC1(C)CCCc2sc(N)c(C#N)c21", "values": [{"measurement": "IC50", "setting": "[5]", "result": "< 10000", "unit": "nM"}]}]}
